The target of assay [1] is T1, MspA-PBA (phenylboronic acid modified hetero-octameric (N90C)1(M2)7 MspA) (Mycolicibacterium smegmatis, UniProt A0QR29, D117C/D118N/D120N/D145R/D161R/E166K).
T1 construct: H6 (hexa-histidine) (C); 3-(maleimide) phenylboronic acid (MPBA) adduct on the thiol of Cys90; made in house; host or cells: E. coli BL21 (DE3) pLysS, co-expression from pETDuet-1
Type of assay: binding, Mycobacterium smegmatis. The following applies: for % Ib (percentage blockage) / S.D. (noise amplitude of blockage level) / τoff (mean dwell time) / τon (mean inter-event interval): N=3; for Calibration coefficient δ (NMP binding events per unit concentration per min): sole NMP 300 μM in cis. How it is done:
FIG. 46: Definition of event parameters. […] The measurement was carried out as described in Methods in Example 2. The chambers were filled with a 1.5 M KCl buffer (1.5 M KCl, 10 mM MOPS, pH 7.0). A transmembrane potential of +200 mV was continually applied. AMP was added to cis with a final concentration of 300 μM. The open pore current (Ip), the residual current (Ib), the dwell time (τoff) and the inter-event duration (τon) are defined as marked on the trace. The percentage blockage (% Ib) is defined as (Ip−Ib)/Ip. The noise amplitude (S.D.) is defined as the standard deviation of the blockage level.
(§1) NMPs consist of a ribose, a phosphate group and a nucleobase, serving as monomeric units of RNA. […] Experimentally, single channel recording was performed using MspA-PBA in a 1.5 M KCl buffer (1.5 M KCl, 10 mM MOPS, pH 7.0) (Methods in Example 2). A transmembrane potential of +200 mV was continually applied. Four canonical NMPs, adenine mononucleotide (AMP), guanine mononucleotide (GMP), cytosine mononucleotide (CMP) and uracil mononucleotide (UMP) were tested as analytes (FIG. 33d). Either type of NMP was added to cis at a final concentration of 300 μM. Subsequently, successive resistive pulses caused by either type of NMP were immediately observed (FIG. 33d). However, no events were observed when M2 MspA was tested, confirming that the PBA located at the pore constriction is critical in the generation of NMP sensing events (FIG. 44). At this condition, ˜1800 events/h were obtained from each pore. The pore could normally withstand a few hours of continuous measurement. Deoxyribonucleoside monophosphate (dNMP) fails to report any event when sensed by MspA-PBA (FIG. 45). This is expected because dNMPs have no cis-diol structure and can't form the boronate ester which is necessary for sensing. The molecular mechanism of sensing which results from reversible covalent bond formation between an NMP and the PBA at the pore constriction is thus confirmed.
To describe NMP sensing events quantitatively, the event dwell time (τoff), the inter-event interval (τon), the percentage blockage (% Ib=(Ip−Ib)/Ip) and the noise amplitude (S.D.) were derived as described in FIG. 46. Generally, the histograms of τoff and τon show an exponential distribution, and could be fitted to derive the mean time constants τoff or τon, respectively. The histograms of % Ib and S.D. show a Gaussian distribution, which could be fitted to derive the mean percentage blockage % Ib and S.D., respectively. During NMP sensing, by varying the NMP concentrations in cis, the reciprocal of dwell time (1/τoff) remains constant, consistent with a unimolecular dissociation mechanism. Whereas the reciprocal of the inter-event interval (1/τon) linearly correlates with the NMP concentration in cis (Tables 8-11, FIG. 47-50), consistent with a bimolecular model. The dependence of the applied voltage during NMP sensing was investigated using AMP as a representative analyte. […] This is expected because in a pH 7.0 buffer, the phosphate group of NMP is negatively charged and the electrophoretic force applied on the NMP analyte can strongly regulate the rate of event appearance and the event dwell time.

The target in the next assay is M2 MspA (Mycolicibacterium smegmatis, UniProt A0QR29, D117N/D118N/D120N/D145R/D161R/E166K). Nature of the assay: NMP sensing performed with M2 MspA (control without PBA). The settings on record: NMP 1 mM in cis, +200 mV. Type of assay: binding, Mycobacterium smegmatis. How it is done: FIG. 44: NMP sensing performed with M2 MspA. (a-d) Representative traces of (a) CMP, (b) UMP, (c) AMP, (d) GMP sensing performed with M2 MspA. All measurements were carried out as described in Methods in Example 2 in a 1.5 M KCl buffer (1.5 M KCl, 10 mM MOPS, pH 7.0). A +200 mV bias was continually applied. NMPs were added to cis with a final concentration of 1 mM for each analyte.
Sequence of M2 MspA (A0QR29 28-211 D117N/D118N/D120N/D145R/D161R/E166K): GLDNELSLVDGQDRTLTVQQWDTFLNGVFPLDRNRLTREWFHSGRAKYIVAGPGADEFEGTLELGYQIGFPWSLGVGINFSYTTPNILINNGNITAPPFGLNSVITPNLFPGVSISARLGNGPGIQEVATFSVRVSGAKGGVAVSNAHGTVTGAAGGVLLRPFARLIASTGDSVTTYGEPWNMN
as §1

[2] abbreviates: NMP 100 μM in cis, +200 mV, three independent measurements.
Where [3] appears, read: NMP 200 μM in cis, +200 mV, three independent measurements.
[4] abbreviates: NMP 300 μM in cis, +200 mV, three independent measurements.
The mark [5] stands for this setting: NMP 400 μM in cis, +200 mV, three independent measurements.
The mark [6] stands for this setting: NMP 500 μM in cis, +200 mV, three independent measurements.
Setting [7] is: +200 mV, three independent measurements.
The mark [8] stands for this setting: voltage series: +40 mV, AMP 500 μM in cis.
[9] abbreviates: voltage series: +80 mV, AMP 500 μM in cis.
[10] abbreviates: voltage series: +120 mV, AMP 500 μM in cis.
The mark [11] stands for this setting: voltage series: +160 mV, AMP 500 μM in cis.
Where [12] appears, read: voltage series: +200 mV, AMP 500 μM in cis.

Structures are written as SMILES. Where two headings read alike, the source gives them in different places.

`Nc1ccn([C@@H]2O[C@H](COP(=O)(O)O)[C@@H](O)[C@H]2O)c(=O)n1` [CMP, Cytidine-5′-monophosphate]: the 1/τoff in assay [1] (setting [2]) was 19.0 ± 1.9 s⁻¹; in assay [1] (setting [3]), 20.9 ± 0.3 s⁻¹; in assay [1] (setting [4]), 21.0 ± 0.4 s⁻¹; in assay [1] (setting [5]), 20.5 ± 0.6 s⁻¹; in assay [1] (setting [6]), 20.6 ± 1.1 s⁻¹. Besides, the 1/τon worked out at 0.30 ± 0.06 s⁻¹ in assay [1] (setting [2]); 0.47 ± 0.05 s⁻¹ in assay [1] (setting [3]); 0.66 ± 0.05 s⁻¹ in assay [1] (setting [4]); 0.86 ± 0.05 s⁻¹ in assay [1] (setting [5]); 1.01 ± 0.13 s⁻¹ in assay [1] (setting [6]). For the same compound, the “% Ib (percentage blockage)” value in assay [1] (NMP 300 μM in cis, +200 mV) came out at 7.1±0.2%; in assay [1] (NMP 300 μM in cis, +200 mV, listed as C) it was 7.1 ± 0.2%. For the same compound, the “S.D. (noise amplitude of blockage level)” value in assay [1] (NMP 300 μM in cis, +200 mV) is 3.23 ± 0.09 pA. In assay [1] (NMP 300 μM in cis, +200 mV), the “τoff (mean dwell time)” value came to 47.6 ± 0.9 ms. Besides, the “τon (mean inter-event interval)” value in assay [1] (NMP 300 μM in cis, +200 mV) was 1511.6 ± 108.3 ms. Moreover, the “Calibration coefficient δ (NMP binding events per unit concentration per min)” value in assay [1] (setting [7]) came to 0.133 ± 0.010 µM⁻¹ min⁻¹. Further, the “binding events with M2 MspA” value on M2 MspA was “No binding events were observed”.
Regarding `O=c1ccn([C@@H]2O[C@H](COP(=O)(O)O)[C@@H](O)[C@H]2O)c(=O)[nH]1` [UMP, uridine-5′-monophosphate], the 1/τoff came out at 7.8 ± 0.9 s⁻¹ in assay [1] (setting [2]); 7.4 ± 1.4 s⁻¹ in assay [1] (setting [3]); 7.7 ± 0.9 s⁻¹ in assay [1] (setting [4]); 8.2 ± 0.4 s⁻¹ in assay [1] (setting [5]); 8.7 ± 0.4 s⁻¹ in assay [1] (setting [6]). Besides, the 1/τon in assay [1] (setting [2]) came to 0.28 ± 0.08 s⁻¹; in assay [1] (setting [3]), 0.36 ± 0.02 s⁻¹; in assay [1] (setting [4]) it was 0.49 ± 0.08 s⁻¹; in assay [1] (setting [5]), 0.56 ± 0.11 s⁻¹; in assay [1] (setting [6]) it was 0.68 ± 0.09 s⁻¹. Besides, the “% Ib (percentage blockage)” value came out at 8.64±0.09% in assay [1] (NMP 300 μM in cis, +200 mV) and 8.64 ± 0.09% in assay [1] (NMP 300 μM in cis, +200 mV, listed as U). For the same compound, the “S.D. (noise amplitude of blockage level)” value in assay [1] (NMP 300 μM in cis, +200 mV) was 2.14 ± 0.06 pA. In addition, the “τoff (mean dwell time)” value in assay [1] (NMP 300 μM in cis, +200 mV) was determined as 130.3 ± 14.8 ms. The “τon (mean inter-event interval)” value in assay [1] (NMP 300 μM in cis, +200 mV) came to 2097.9 ± 474.7 ms. In addition, the “Calibration coefficient δ (NMP binding events per unit concentration per min)” value in assay [1] (setting [7]) came out at 0.097 ± 0.014 µM⁻¹ min⁻¹. The “binding events with M2 MspA” value on M2 MspA is recorded as “No binding events were observed”.
As to `Nc1nc2c(ncn2[C@@H]2O[C@H](COP(=O)(O)O)[C@@H](O)[C@H]2O)c(=O)[nH]1` [GMP, guanosine-5′-monophosphate], the 1/τoff in assay [1] (setting [2]) is 11.5 ± 0.9 s⁻¹; in assay [1] (setting [3]), 10.6 ± 1.4 s⁻¹; in assay [1] (setting [4]), 10.5 ± 1.1 s⁻¹; in assay [1] (setting [5]), 10.2 ± 0.2 s⁻¹; in assay [1] (setting [6]), 11.4 ± 1.3 s⁻¹. The 1/τon in assay [1] (setting [2]) amounted to 0.02 ± 0.07 s⁻¹; in assay [1] (setting [3]), 0.50 ± 0.12 s⁻¹; in assay [1] (setting [4]), 0.68 ± 0.02 s⁻¹; in assay [1] (setting [5]), 0.83 ± 0.04 s⁻¹; in assay [1] (setting [6]), 1.00 ± 0.04 s⁻¹. Also, the “% Ib (percentage blockage)” value in assay [1] (NMP 300 μM in cis, +200 mV) stood at 11.8±0.2%; in assay [1] (NMP 300 μM in cis, +200 mV, listed as G) it was 11.8 ± 0.2%. Moreover, the “S.D. (noise amplitude of blockage level)” value in assay [1] (NMP 300 μM in cis, +200 mV) came to 3.02 ± 0.13 pA. Moreover, in assay [1] (NMP 300 μM in cis, +200 mV), the “τoff (mean dwell time)” value was determined as 96.3 ± 10.4 ms. The “τon (mean inter-event interval)” value in assay [1] (NMP 300 μM in cis, +200 mV) is reported as 1473.1 ± 44.4 ms. For the same compound, the “Calibration coefficient δ (NMP binding events per unit concentration per min)” value in assay [1] (setting [7]) was found to be 0.136 ± 0.004 µM⁻¹ min⁻¹. Further, the “binding events with M2 MspA” value at M2 MspA is listed as “No binding events were observed”.
As to `Nc1ncnc2c1ncn2[C@@H]1O[C@H](COP(=O)(O)O)[C@@H](O)[C@H]1O` [AMP, adenosine-5′-monophosphate], the 1/τoff in assay [1] (setting [2]) worked out at 14.9 ± 0.5 s⁻¹; in assay [1] (setting [3]) it was 15.1 ± 0.2 s⁻¹; in assay [1] (setting [4]) it was 13.8 ± 0.4 s⁻¹; in assay [1] (setting [5]) it was 14.6 ± 1.1 s⁻¹; in assay [1] (setting [6]) it was 14.4 ± 1.8 s⁻¹; in assay [1] (setting [8]) it was 30.5 ± 1.7 s⁻¹. The 1/τoff in assay [1] (setting [9]) was 27.6 ± 1.9 s⁻¹; in assay [1] (setting [10]), 24.2 ± 2.1 s⁻¹; in assay [1] (setting [11]) it was 18.0 ± 1.4 s⁻¹; in assay [1] (setting [12]), 14.5 ± 1.8 s⁻¹. In addition, the 1/τon came to 0.54 ± 0.11 s⁻¹ in assay [1] (setting [2]); 0.82 ± 0.05 s⁻¹ in assay [1] (setting [3]); 1.03 ± 0.11 s⁻¹ in assay [1] (setting [4]); 1.19 ± 0.08 s⁻¹ in assay [1] (setting [5]); 1.39 ± 0.07 s⁻¹ in assay [1] (setting [6]); 0.45 ± 0.03 s⁻¹ in assay [1] (setting [8]). Also, the 1/τon in assay [1] (setting [9]) was 0.71 ± 0.12 s⁻¹; in assay [1] (setting [10]), 1.13 ± 0.08 s⁻¹; in assay [1] (setting [11]), 1.23 ± 0.11 s⁻¹; in assay [1] (setting [12]) it was 1.38 ± 0.08 s⁻¹. Also, the “% Ib (percentage blockage)” value came out at 10.89±0.14% in assay [1] (NMP 300 μM in cis, +200 mV) and 10.89 ± 0.14% in assay [1] (NMP 300 μM in cis, +200 mV, listed as A). Further, in assay [1] (NMP 300 μM in cis, +200 mV), the “S.D. (noise amplitude of blockage level)” value is given as 3.14 ± 0.14 pA. The “τoff (mean dwell time)” value in assay [1] (NMP 300 μM in cis, +200 mV) turned out to be 72.76 ± 2.07 ms. In assay [1] (NMP 300 μM in cis, +200 mV), the “τon (mean inter-event interval)” value is given as 979.5 ± 106.1 ms. The “sensing events with MspA-PBA” value in assay [1] (analyte 1 mM in cis, +200 mV) is “Successive appearance of AMP sensing events was observed”. For the same compound, the “Calibration coefficient δ (NMP binding events per unit concentration per min)” value in assay [1] (setting [7]) stood at 0.21 ± 0.02 µM⁻¹ min⁻¹. Besides, the “binding events with M2 MspA” value at M2 MspA is listed as “No binding events were observed”.

The values are drawn from patent US20240418701A1, “SINGLE MOLECULE IDEN[…] A REACTIVE HETERO-NANOPORE” (priority 2021, published 2024).
